# Measured values as given in patent US7687530B2, “Inhibition of chronic tissue transplant rejection” (Genzyme Corporation, priority 2002, dated 2010).
# “Also recorded” adds a separate entry of the source.
# What was measured:
# Type in all cases: in vivo
# [1] = tested on: hearts from donor B6.C-H2^bm12 mice transplanted into C57/BL6 recipient mice (MHC II mismatch); experiment: Chronic rejection of MHC class II mismatched heart transplants, first mouse model (Example 1)
# Method: The ability of Compound 1 to inhibit chronic transplant rejection in a mouse model was tested. Specifically, hearts from donor B6.C-H2^bm12 mice were transplanted into C57/BL6 recipient mice (MHC II mismatch) using standard protocol described in Hancock, W. W., et al. Proc. Natl. Acad. Sci. USA 93: 13967 (1996) and Yuan et al., Transplantation 73:1736, the entire teachings of which are incorporated herein by reference. Following surgery, the mice were divided into the following treatment groups with seven mice each:
# Group I was a control group that was untreated.
# Group II was treated with Compound 1 at a dose of 75 mg/kg/day subcutaneously for fourteen days following surgery.
# At eight weeks following transplant surgery, the mice were sacrificed and evaluated for chronic rejection accelerated atherosclerosis. Briefly, transplanted hearts were fixed in formalin, embedded in paraffin and sectioned coronally. The sections were scanned for arterial blood vessels, which were subjected to a histopathological score. The histopathological scores (range 0-5 indicating severity of chronic rejection accelerated atherosclerosis, with 0 being normal blood vessel and 5 being fully occluded) are shown in FIG. 1. […] It is likely that increased bioavailability resulting from improved compound formulation will result in more complete protection from chronic rejection vasculopathy.
# [2] = tested on: fully mismatched cardiac allografts (C57/BL 6 donor with Balb/C recipient); experiment: Heterotypic allogeneic heart transplant model with CD154 blockade, second mouse model (Example 2)
# Method: The ability of compound 1 to inhibit chronic transplant rejection was tested in a mouse heterotypic allogeneic heart transplant model in which acute allograft rejection was prevented with CD154 blockade as previously described (Hancock, W. W. et al. 1996. Proc. Natl. Acad. Sci. USA. 93:13967; and Yuan et al., Transplantation 73:1736). Briefly, this model consists of fully mismatched cardiac allografts (C57/BL 6 donor with Balb/C recipient). […] A third group in which acute rejection is blocked by administering a single 250 μg dose of anti-CD154 (anti-CD40 ligand) monoclonal antibody was established, and acute rejection (as evidenced by cessation of contraction of the transplanted heart) occurred in approximately 50% of recipient animals. […] These include profound athlerosclerotic blockages of heart arteries, cellular inflammation (immune cell infiltration into the heart muscle itself), and fibrotic scarring of the cardiac parenchyma. The hearts were subjected to a histopathological score. The histopathological scores (range 0-5 indicating severity of chronic rejection accelerated atherosclerosis, with 0 being normal blood vessel and 5 being fully occluded) are shown in FIG. 2. Thus the addition of anti-CD154 to this model offers certain similarities to the human transplant clinical condition in that acute rejection is managed (in this case with the anti-CD154 monoclonal antibody) so that chronic rejection pathology can be observed.
# [3] = tested on: heart from C57/BL6 mice transplanted into Balb/c recipient mice (total MHC mismatch); experiment: Transplant rejection in total MHC mismatch heart transplant mouse model (Example 3); settings: Compound 1 alone 75 mg/kg/day s.c. for fourteen days; p<0.001; untreated controls rejected after ten days
# Method: The ability of Compound 1 to inhibit transplant rejection in a mouse model was tested. Specifically, the heart from C57/BL6 mice was transplanted into Balb/c recipient mice (total MHC mismatch) using standard protocol described in Hancock, W. W., et al. “Costimulatory function and expression of CD40 ligand, CD80 and CD86 in vascularized murine cardiac allograft rejection” Proc. Natl. Acad. Sci. USA 93: 13967 (1996). Following surgery, the mice were divided into the following treatment groups: • Group I is a control group that was untreated. • Group II was treated with Compound 1 at a dose of 75 mg/kg/day subcutaneously for fourteen days following surgery. Control mice receiving no treatment reproducibly experienced rejection of their transplanted hearts after only ten days.
smiles,measurement,setting,value
N#Cc1cccc(C(C(=O)NCC(c2ccccc2)c2ccccc2)N(CCc2c[nH]cn2)C(=O)c2ccccc2C(=O)c2ccccc2)c1 (centres unmarked) [Compound 1],animals free of vasculopathy,"[1]; 75 mg/kg/day s.c. for fourteen days, eight weeks after transplant, seven mice per group",4/7
same,treated animals showing full involvement (vasculopathy),"[1]; 75 mg/kg/day s.c. for fourteen days, eight weeks after transplant, seven mice per group, possibly diminished exposure",three
same,"histological evidence of chronic rejection (histopathological score 0-5, chronic rejection accelerated atherosclerosis)","[1]; 75 mg/kg/day subcutaneously for fourteen days following surgery, evaluated eight weeks after transplant, averaged for all animals, vs untreated control",inhibited; also recorded: significantly (p=0.0002) prevented histological evidence of chronic rejection
same,chronic rejection of transplanted hearts,"[2]; 75 mg/kg/day Compound 1 for two weeks combined with single 250 μg anti-CD154 monoclonal antibody, 120 days post surgery",inhibited
same,"indicators of chronic graft rejection (atherosclerotic blockages, cellular inflammation, fibrotic scarring), histological evaluation","[2]; Compound 1 75 mg/kg daily s.c. for 14 days plus single dose anti-CD154, compared with anti-CD154 alone, more than 100 days post surgery",dramatic inhibition of all indicators of chronic rejection
same,transplant recipient animals with lack of acute rejection,"[2]; Compound 1 75 mg/kg daily s.c. for 14 days plus single dose anti-CD154, for more than 100 days post surgery",100%
same,extension in transplant survival,"[2]; Compound 1 alone, untreated recipients rejected within 10 days",about 20 days
same,delay in the onset of rejection,[3],two to three
